From ChEMBL document CHEMBL5634187, “Identification of Selective Imidazopyridine CSF1R Inhibitors” (ACS Med Chem Lett, 2024)
Values after ≈ are worked out from the molar mass of the structure shown.

Tests used:
physchem [1] = conditions: octanol/water
Description: Lipophilicity, logD of the compound

[2] = target: CYP450 (isoform not stated) (Homo sapiens, UniProt P04798+P05177+P05181+P08684+P10632+P10635+P11509+P11712+P13584+P20813+P20815+P20853+P24462+P24903+P33260+P33261+P51589+P78329+P98187+Q02928+Q08477+Q16678+Q16696+Q5TCH4+Q6VVX0+Q7Z449+Q8TAV3+Q96SQ9+Q9HB55); assay: in vitro
in vitro [3] = conditions: human, Caco-2
Description: Permeability in human Caco-2 cells

in vitro [4] = conditions: rat, liver microsomes
Description: Intrinsic clearance in rat liver microsomes

in vitro [5] = conditions: human, liver microsomes
Description: Intrinsic clearance in human liver microsomes

physchem [6] = conditions: buffer, pH 7.4
Description: Solubility of compound at pH 7.4

in vivo [7] = conditions: Sprague-Dawley, rat, iv, 1 mg/kg
in vivo [8] = conditions: Sprague-Dawley, rat, iv, 1 mg/kg; remark: listed apart in the source
Description: Clearance in Sprague-Dawley rat at 1 mg/kg, iv

in vivo [9] = conditions: Sprague-Dawley, rat, iv, 1 mg/kg; remark: listed apart in the source
Description: Half-life in Sprague-Dawley rat at 1 mg/kg, iv

in vivo [10] = conditions: Sprague-Dawley, rat, po, 3 mg/kg
in vivo [11] = conditions: Sprague-Dawley, rat, po, 3 mg/kg; remark: listed apart in the source
Description: Half-life in Sprague-Dawley rat at 3 mg/kg, po

in vivo [12] = conditions: Sprague-Dawley, rat, po, 3 mg/kg; remark: listed apart in the source
Cytochrome P450 3A4 = Cytochrome P450 3A4 (Homo sapiens, UniProt P08684); assay: Inhibition of CYP450 3A4 (unknown origin) using midazolam as substrate; format: ADME
Cytochrome P450 3A4, sequence (P08684 whole entry): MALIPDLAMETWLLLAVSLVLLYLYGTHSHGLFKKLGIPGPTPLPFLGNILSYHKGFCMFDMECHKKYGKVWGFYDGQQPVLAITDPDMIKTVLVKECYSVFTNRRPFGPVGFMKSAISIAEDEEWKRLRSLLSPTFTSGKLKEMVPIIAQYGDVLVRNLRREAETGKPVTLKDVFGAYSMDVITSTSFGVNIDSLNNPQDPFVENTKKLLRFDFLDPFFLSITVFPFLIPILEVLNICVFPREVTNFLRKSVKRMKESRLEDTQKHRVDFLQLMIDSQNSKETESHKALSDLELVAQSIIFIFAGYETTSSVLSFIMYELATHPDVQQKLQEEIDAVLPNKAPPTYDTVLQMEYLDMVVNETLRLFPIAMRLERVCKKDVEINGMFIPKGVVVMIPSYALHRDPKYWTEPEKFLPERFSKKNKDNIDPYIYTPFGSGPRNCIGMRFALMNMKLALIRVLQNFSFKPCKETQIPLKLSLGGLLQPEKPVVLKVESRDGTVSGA

in vivo [13] = conditions: Sprague-Dawley, rat, iv, 1 mg/kg; remark: listed apart in the source
in vivo [14] = conditions: Sprague-Dawley, rat, po, 3 mg/kg; remark: listed apart in the source
[15] = target: Mast/stem cell growth factor receptor Kit (Homo sapiens, UniProt P10721)
Mast/stem cell growth factor receptor Kit, sequence (P10721 whole entry): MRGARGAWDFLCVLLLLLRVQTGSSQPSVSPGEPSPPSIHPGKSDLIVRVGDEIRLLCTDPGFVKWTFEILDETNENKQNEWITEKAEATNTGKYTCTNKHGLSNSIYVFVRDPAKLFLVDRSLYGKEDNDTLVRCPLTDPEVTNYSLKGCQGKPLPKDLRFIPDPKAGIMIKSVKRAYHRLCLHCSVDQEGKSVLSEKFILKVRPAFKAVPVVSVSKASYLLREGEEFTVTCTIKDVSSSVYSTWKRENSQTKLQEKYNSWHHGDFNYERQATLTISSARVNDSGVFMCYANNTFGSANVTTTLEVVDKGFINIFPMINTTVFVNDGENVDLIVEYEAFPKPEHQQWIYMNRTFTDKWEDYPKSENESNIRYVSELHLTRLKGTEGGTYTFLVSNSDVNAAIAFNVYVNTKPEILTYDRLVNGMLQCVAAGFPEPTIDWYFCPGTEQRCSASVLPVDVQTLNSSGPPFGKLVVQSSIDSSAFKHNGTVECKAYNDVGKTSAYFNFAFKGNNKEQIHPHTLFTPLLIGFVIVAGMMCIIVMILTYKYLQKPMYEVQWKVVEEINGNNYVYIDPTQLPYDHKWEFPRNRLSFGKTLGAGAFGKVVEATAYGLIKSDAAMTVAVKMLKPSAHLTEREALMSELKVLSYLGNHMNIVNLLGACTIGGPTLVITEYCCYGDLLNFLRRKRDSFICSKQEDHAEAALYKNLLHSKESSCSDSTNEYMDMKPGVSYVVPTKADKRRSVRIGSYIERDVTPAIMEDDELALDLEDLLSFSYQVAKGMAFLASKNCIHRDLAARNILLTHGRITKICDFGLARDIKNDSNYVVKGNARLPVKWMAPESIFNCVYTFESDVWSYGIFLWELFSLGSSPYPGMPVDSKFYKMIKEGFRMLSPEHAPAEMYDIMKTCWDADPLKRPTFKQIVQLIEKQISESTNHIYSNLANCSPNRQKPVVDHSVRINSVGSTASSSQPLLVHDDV
Description: Inhibition of c-Kit (unknown origin)

Structure (SMILES)	logD (physchem [1])	IC50 [2] [µM]	Papp (in vitro [3]) [×10⁻⁶ cm/s]	microsomal CLint (in vitro [4]) [µL/min/mg]	microsomal CLint (in vitro [5]) [µL/min/mg]	solubility (physchem [6]) [µg/mL]	other results
COc1ccc(COc2ccc(Cn3cnc4cc(C#CC5CCNC5)cnc43)cc2OC)cn1 (centres undefined)	1.5	–	5.1	19	16	57 (≈ 121 µM)	Vd (in vivo [7]): 4.89 L/kg; clearance (in vivo [8]): 31 mL/min/kg; half-life (in vivo [9]): 2 h; bioavailability (in vivo [10]): 36%; half-life (in vivo [11]): 1.7 h; AUC(0-inf) (in vivo [12]): 625 ng·h/mL; IC50 (Cytochrome P450 3A4): 6.6 µM; AUC(0-inf) (in vivo [13]): 542 ng·h/mL; Cmax (in vivo [14]): 108 ng/mL
COc1ccc(COc2ccc(Cn3cnc4cc(N5CCN(C)CC5)cnc43)cc2OC)cn1	2.3	> 10	29	130	33	> 450	–
COc1ccc(COc2ccc(Cn3cnc4cc(C(=O)N(C)C)cnc43)cc2OC)cn1	–	> 10	–	–	–	–	–
Cc1nc(-c2cnc(NC(C)C)n(C)c2=O)ccc1Oc1ccnc(-c2cnn(C)c2)c1 [VIMSELTINIB]	–	–	–	–	–	–	IC50 [15]: 0.48 µM

Second part, led by results:

logD (physchem [1])	IC50 [2] [µM]	Papp (in vitro [3]) [×10⁻⁶ cm/s]	microsomal CLint (in vitro [4]) [µL/min/mg]	microsomal CLint (in vitro [5]) [µL/min/mg]	solubility (physchem [6]) [µg/mL]	Structure (SMILES)	other results
1.6	> 10	2	< 7.2	21	13 (≈ 26 µM)	COc1ccc(COc2ccc(Cn3cnc4cc(-n5cc(C(C)(C)N)nn5)cnc43)cc2OC)cn1	–
–	> 10	–	–	–	–	COc1ccc(COc2ccc(Cn3cnc4cc(C(=O)N5CC6(COC6)C5)cnc43)cc2OC)cn1	–
2.6	> 10	11	–	–	1.2 (≈ 3.27 µM)	COc1ccc(COc2ccc(Cc3cnc(N)nc3N)cc2OC)cc1 [GW632580X]	–
–	> 10	–	–	–	–	COc1ccc(COc2ccc(Cn3cnc4cc(OC5CCNCC5)cnc43)cc2OC)cn1	–
